One may read the IC50 as the concentration that inhibits the measured activity by half. Low readings indicate greater potency in that assay, high ones weaker potency in that assay. The term AUC denotes concentration integrated over time.

The target of one series is T1, IκB kinase (Homo sapiens, UniProt O14920+O15111).
T1 construct: endogenous in cells; host or cells: HeLa S3 (S100 extract; ammonium sulfate cut, Superose-6 fractions at 670 kDa)
As to the kind of experiment: IκB kinase ELISA. It is filed as biochemical. Background: In an ELISA, binding on a coated surface is turned into a signal by an enzyme label.

The next series relates to protein tyrosine kinase. As to the kind of experiment: Protein tyrosine kinase assay (Upstate test kit). The class given is biochemical. The note with it: for Specificity ratio: IC50 protein tyrosine kinase relative to IκB kinase, > denotes better than; for IC50: ATP concentration of 50 μM, substrate Poly (Glu, Tyr 4:1) 1 mg/ml. How it is done:
As examples of the specificities of the IκB kinase inhibitors which had been discovered, their IC50 values were determined in the case of the kinase enzyme protein tyrosine kinase.
Protein tyrosine kinase activity was determined using the appropriate test kit from Upstate Biotechnologie in accordance with the manufacturer's instructions and at an ATP concentration of 50 μM. As a difference from the manufacturer's method, Multi-Screen plates (Millipore; phosphocellulose MS-PH, cat. MAPHNOB10, or Durapore PVDF, cat. MADVNOB 50), were used, together with the appropriate exhaust system, instead of phospho-cellulose filters. Poly (Glu, Tyr 4:1) (Sigma cat. P0275) was used as the test kit substrate at a test concentration of 1 mg/ml. The plates were then measured in a Wallac MicroBeta scintillation counter. 100 μM of the test substance were used in each case.
The test substance was tested in a duplicate determination. The IC50 calculations were performed using the GraFit 3.0 software package.

The nature of series [1]: Blood plasma level after oral administration, male C57/BL6 mice. To be noted: about 25 mg/kg orally as suspension in 0.5% HEC, sampling 0.25-8 hours. The class given is in vivo. The protocol: Blood plasma level of N-[(S)-2-diphenylamino-1-(5-oxo-4,5-dihydro[1,3,4]-oxadiazol-2-yl)ethyl]-2-(2-methylaminopyrimidin-4-yl)-1H-indol-5-carboxamide.
Blood samples were taken after 0.25; 0.5; 1; 2; 4; 6 and 8 hours (sacrificial blood was withdrawn from in each case 2 animals at each of the time points mentioned). The blood samples were converted into heparin plasma. The plasma samples were stored at −20° C. until analyzed.
The plasma samples were thawed. The plasma proteins which interfered with the analysis were then precipitated with acetonitrile.
Processing: 50 μl of plasma+20 μl of internal standard (5 μg/ml)+50 μl of buffer (2 mMol ammonium formate solution, pH 2.6/acetonitrile, 40:60, v/v) were mixed for about 10 sec on a Whirlmixer. 150 μl of acetonitrile were then added and the whole was mixed once again for about 10 sec. The samples were then centrifuged (Hettich, EBA 12, about 12 000 revolutions per minute). The supernatants (in each case about 200 μl) were transferred to glass tubes. 70 μl of the supernatant were injected.
The lower detection limit of the method is 0.01 μg/mL.

A short description of series [2]: Comparison experiment: blood plasma level after oral administration, male NMRI mice. The class given is in vivo. How it is done: [drawing 27] was prepared as described in WO 01/30774 and is termed the comparison compound below. The comparison compound was administered to male NMRI mice. For this, in each case about 50 mg of the comparison compound per kg of body weight of the mice were administered orally as a suspension in 0.5% HEC (by way of a probang). Blood samples were taken after 0.25; 0.5; 1; 2; 4; 6 and 8 hours (sacrificial blood was withdrawn from in each case 2 animals at each of the time points mentioned). The blood samples were converted into heparin plasma. The plasma samples were stored at −20° C. until analyzed.
Analysis: The analysis was carried out using HPLC/UV.
Processing: 50 μl of plasma+20 μl of internal standard (5 μg/ml)+50 μl of buffer (1% formic acid/acetonitrile, 40:60, v/v) were mixed for about 10 sec on a Whirlmixer. 150 μl of acetonitrile were then added and the whole was mixed once again for about 10 sec. The samples were then centrifuged (Hettich, EBA 12, about 12 000 revolutions per min). The supernatants (in each case about 200 μl) were transferred to glass tubes. 100 μl of the supernatant were injected.

T1 sequence (O14920 whole entry): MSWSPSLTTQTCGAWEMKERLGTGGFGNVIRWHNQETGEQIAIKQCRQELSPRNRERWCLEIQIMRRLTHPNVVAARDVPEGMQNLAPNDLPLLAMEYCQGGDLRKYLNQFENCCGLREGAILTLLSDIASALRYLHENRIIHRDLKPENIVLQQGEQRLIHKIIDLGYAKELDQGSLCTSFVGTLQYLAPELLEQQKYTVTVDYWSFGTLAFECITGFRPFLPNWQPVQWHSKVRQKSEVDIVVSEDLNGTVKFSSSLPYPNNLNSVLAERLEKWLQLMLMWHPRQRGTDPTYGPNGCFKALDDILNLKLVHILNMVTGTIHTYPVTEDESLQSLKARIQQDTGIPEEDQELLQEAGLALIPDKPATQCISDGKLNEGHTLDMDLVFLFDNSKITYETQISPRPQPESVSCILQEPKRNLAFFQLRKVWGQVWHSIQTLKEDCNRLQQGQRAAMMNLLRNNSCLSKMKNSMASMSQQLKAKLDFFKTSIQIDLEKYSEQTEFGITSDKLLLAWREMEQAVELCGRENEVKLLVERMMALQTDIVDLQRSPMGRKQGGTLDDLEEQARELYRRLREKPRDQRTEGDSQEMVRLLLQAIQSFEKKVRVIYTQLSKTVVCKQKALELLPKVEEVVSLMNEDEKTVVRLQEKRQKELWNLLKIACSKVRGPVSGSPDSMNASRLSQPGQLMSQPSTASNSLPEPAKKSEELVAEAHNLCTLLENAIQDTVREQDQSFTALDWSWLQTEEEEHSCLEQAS
T1 sequence (O15111 whole entry): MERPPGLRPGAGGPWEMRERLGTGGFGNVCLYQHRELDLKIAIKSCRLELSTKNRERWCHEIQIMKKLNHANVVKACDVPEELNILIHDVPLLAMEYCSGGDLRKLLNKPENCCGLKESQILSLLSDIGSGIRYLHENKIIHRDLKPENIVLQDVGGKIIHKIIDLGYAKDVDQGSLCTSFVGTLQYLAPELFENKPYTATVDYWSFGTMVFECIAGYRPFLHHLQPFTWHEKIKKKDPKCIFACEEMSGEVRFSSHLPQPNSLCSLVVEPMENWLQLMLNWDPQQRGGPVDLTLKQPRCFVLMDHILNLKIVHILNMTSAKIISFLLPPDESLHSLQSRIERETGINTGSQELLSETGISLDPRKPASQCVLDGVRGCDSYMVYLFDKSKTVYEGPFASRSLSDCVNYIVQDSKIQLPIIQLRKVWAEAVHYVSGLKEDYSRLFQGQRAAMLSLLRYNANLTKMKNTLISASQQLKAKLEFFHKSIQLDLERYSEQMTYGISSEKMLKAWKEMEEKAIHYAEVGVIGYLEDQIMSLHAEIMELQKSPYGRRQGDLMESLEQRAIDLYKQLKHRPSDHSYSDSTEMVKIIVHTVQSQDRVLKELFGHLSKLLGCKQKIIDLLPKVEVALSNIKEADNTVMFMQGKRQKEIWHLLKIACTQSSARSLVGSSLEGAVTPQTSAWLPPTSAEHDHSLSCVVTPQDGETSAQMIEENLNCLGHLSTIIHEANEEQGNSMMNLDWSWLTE
T1 sequence (Q9Y6K9 whole entry partner): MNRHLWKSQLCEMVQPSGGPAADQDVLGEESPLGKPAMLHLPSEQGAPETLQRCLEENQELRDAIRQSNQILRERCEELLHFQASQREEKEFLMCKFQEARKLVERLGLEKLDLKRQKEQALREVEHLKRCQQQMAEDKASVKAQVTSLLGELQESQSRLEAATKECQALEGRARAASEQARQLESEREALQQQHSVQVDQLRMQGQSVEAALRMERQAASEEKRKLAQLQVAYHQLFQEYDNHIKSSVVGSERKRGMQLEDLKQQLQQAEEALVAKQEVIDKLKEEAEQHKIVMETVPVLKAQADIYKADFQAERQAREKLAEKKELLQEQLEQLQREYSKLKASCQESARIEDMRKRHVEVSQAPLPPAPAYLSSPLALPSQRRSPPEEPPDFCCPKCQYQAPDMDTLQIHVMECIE

In turn, `CNc1nccc(-c2cc3cc(C(=O)N[C@@H](CN(c4ccccc4)c4nccs4)C(N)=O)ccc3[nH]2)n1` [Example 42, N-[1–Carbamoyl-2-(phenylthiazol-2-ylamino)ethyl]-S-2-(2-methylaminopyrimidin-4-yl)-1H-indole-5-carboxamide] showed an IC50 at IκB kinase of 9 nM. Further, in the series on protein tyrosine kinase, the Specificity ratio is given as over 1110.

Molecule `CNc1nccc(-c2cc3cc(C(=O)N[C@@H](CN(c4ccccc4)c4ccccn4)C(=O)NOC)ccc3[nH]2)n1` [Example 43, N-[1-Methoxycarbamoyl-2-(phenylpyridin-2-ylamino)ethyl]-S-2-(2-methylaminopyrimidin-4-yl)-1H-indole-5-carboxamide] had an IC50 on IκB kinase of 0.8 nM. Besides, the Specificity ratio with protein tyrosine kinase is given as over 12500.

Consider `CNc1nccc(-c2nc3cc(C(=O)NC(CN(c4ccccc4)c4ncccn4)C(N)=O)ccc3[nH]2)n1` (stereo not drawn) [Example 65, N-{1–Carbamoyl-2-[(phenyl)pyrimidin-2-ylamino]ethyl}2-(2-methylaminopyrimidin-4-yl)-1H-benzimidazole-5-carboxamide], for which 4 nM corresponded to half-maximal inhibition against IκB kinase (IC50). Besides, in the series on protein tyrosine kinase, the Specificity ratio is recorded as over 2500.

At IκB kinase, `CNc1nccc(-c2nc3cc(C(=O)N[C@@H](CN(c4ccccc4)c4ccccc4)C(N)=O)ccc3[nH]2)n1` [Example 63] had a 50% inhibitory concentration (IC50) of 3 nM. Moreover, in the series with protein tyrosine kinase, the Specificity ratio is given as over 1000.

Turning to `NC(=O)C(CN(c1ccc(F)cc1)c1ccccn1)NC(=O)c1ccc2[nH]c(-c3ccnc(N)n3)cc2c1` (stereo not drawn) [Example 35, N-{1–Carbamoyl-2-[(4-fluorophenyl)pyridin-2-ylamino]ethyl}-2-(2-aminopyrimidin-4-yl)-1H-indole-5-carboxamide], the IC50 against IκB kinase is 10 nM. Moreover, in the series on protein tyrosine kinase, the Specificity ratio is reported as over 1000.

Molecule `CNc1nccc(-c2cc3cc(C(=O)NC(CN(c4ccc(F)cc4)c4ccccn4)C(N)=O)ccc3[nH]2)n1` (stereo not drawn) [Example 30, N-{1–Carbamoyl-2-[(4-fluorophenyl)pyridin-2-ylamino]ethyl}-2-(2-methylaminopyrimidin-4-yl)-1H-indole-5-carboxaminde] registered an IC50 at IκB kinase of 50 nM. Also, the Specificity ratio in the series on protein tyrosine kinase was over 200.

Regarding `CNc1nccc(-c2cc3cc(C(=O)N[C@@H](CN(c4ccccc4)c4ccccc4)c4n[nH]c(=O)o4)ccc3[nH]2)n1` [Example 28, N-[(S)-2-Diphenylamino-1-(5-oxo-4,5-dihydro[1,3,4]oxadiazol-2-yl)ethyl]-2-(2-methylaminopyrimidin-4-yl)-1H-indole-5-carboxamide], in series [1], the “plasma level, at most (maximum blood plasma level)” value turned out to be 4300 ng/mL. Moreover, the AUC in series [1] (mouse, plasma, po, read-out: exposure, measured as AUC=area under the curve) was 5400 ng·h/mL. This molecule gave an IC50 against protein tyrosine kinase of 82500 nM.

For the molecule `CNc1nccc(-c2cc3cc(C(=O)NC(CN(c4ccccc4)c4ncccn4)C(N)=O)ccc3[nH]2)n1` (stereo not drawn) [Example 47, N-{1–Carbamoyl-2[(phenyl)pyrimidin-2-ylamino]ethyl}-2-(2-methylaminopyrimidin-4-yl)-1H-indole-5-carboxamide], the IC50 against IκB kinase was determined as 6 nM. Also, the Specificity ratio in the series with protein tyrosine kinase is over 1665.

Turning to `CNc1nccc(-c2cc3cc(C(=O)N[C@@H](CN(c4ccccc4)c4ccccn4)c4n[nH]c(=O)o4)ccc3[nH]2)n1` [Example 33, N-[(S)-1-(5-Oxo-4,5-dihydro-1,3,4-oxadiazol-2-yl)-2-(phenylpyridin-2-ylamino)ethyl]-2-(2-methylaminopyrimidin-4-yl)-1H-indole-5-carboxamide], the IC50 against IκB kinase turned out to be 12 nM. Also, in the series on protein tyrosine kinase, the Specificity ratio is listed as over 833.

`CNc1nccc(-c2nc3cc(C(=O)NC(CN(c4ccccc4)c4ccccn4)C(N)=O)ccc3[nH]2)n1` (stereo not drawn) [Example 67, N-{1–Carbamoyl-2-[(phenyl)pyridin-2-ylamino]ethyl}-2-(2-methylaminopyrimidin-4-yl)-1H-benzimidazole-5-carboxamide] yielded an IC50 against IκB kinase of 2 nM. Besides, the Specificity ratio in the series with protein tyrosine kinase is reported as over 5000.

Consider `CNc1nccc(-c2cc3cc(C(=O)NC(CN(c4ccccc4)c4ncccn4)C(=O)NCCO)ccc3[nH]2)n1` (stereo not drawn) [Example 49, N-[1-(2-Hydroxyethylcarbamoyl)-2-(phenylpyrimidin-2-ylamino)ethyl]-2-(2-methylaminopyrimidin-4-yl)-1H-indole-5-carboxamide], for which the IC50 against IκB kinase came out at 35 nM.

On to `CNc1nccc(-c2cc3cc(C(=O)NC(CN(c4ccc(F)cc4)c4ncc(C)cn4)C(N)=O)ccc3[nH]2)n1` (stereo not drawn) [Example 61, N-{1–Carbamoyl-2-[(4-fluorophenyl)-(5-methylpyrimidin-2-yl)amino]ethyl}-2-(2-methylaminopyrimidin-4-yl)-1H-indole-5-carboxamide], for which, on IκB kinase, half-maximal inhibition (IC50) was put at 6 nM. In addition, the Specificity ratio in the series on protein tyrosine kinase is over 1650.

For the molecule `CCN(C[C@H](NC(=O)c1ccc2[nH]c(-c3ccncc3)cc2c1)C(N)=O)c1ccccc1` [comparison compound], in series [2] (comparison compound 50 mg/kg vs compound 28 25 mg/kg, oral, mice), the “maximum blood plasma level lower than with compound 28” value was “about 60%”. Also, the “plasma level, at most (maximum blood plasma level)” value in series [2] (male NMRI mice, about 50 mg/kg orally as suspension in 0.5% HEC, sampling 0.25-8 hours) stood at 1500 ng/mL. The AUC in series [2] (mouse, plasma, po, male NMRI mice, about 50 mg/kg orally as suspension in 0.5% HEC, sampling 0.25-8 hours, read-out: exposure, measured as the AUC=area under the curve) was determined as 1700 ng·h/mL. The same molecule displayed an IC50 at protein tyrosine kinase of 46400 nM. Also, the “ratio of the IC50 values for protein tyrosine kinase relative to IκB kinase” value in the series on protein tyrosine kinase (for the comparison compound the IκB kinase IC50 is taken from WO 01/30774) is given as 46.35.

The molecule `CNc1nccc(-c2cc3cc(C(=O)N[C@@H](CN(c4ccccc4)c4nccc(C(F)(F)F)n4)C(=O)O)ccc3[nH]2)n1` [Example 54, (S)-2-{[2-(2-Methylaminopyrimidin-4-yl)-1H-indole-5-carbonyl]amino}-3-[phenyl-(4-trifluoromethylpyrimidin-2-yl)amino]propionic Acid] showed an IC50 against IκB kinase of 3 nM. The Specificity ratio in the series on protein tyrosine kinase is over 3330.

`CNc1nccc(-c2cc3cc(C(=O)NC(CN(c4ccc(F)cc4)c4ccccn4)c4nnc[nH]4)ccc3[nH]2)n1` (stereo not drawn) [Example 36, N-[2-[(4-Fluorophenyl)pyridin-2-ylamino]-1-(4H-[1,2,4]triazol-3-yl)ethyl]-2-(2-methylaminopyrimidin-4-yl)-1H-indole-5-carboxamide] registered an IC50 against IκB kinase of 5 nM. In the series with protein tyrosine kinase, the Specificity ratio is over 2000.

These data come from patent publication US7285560B2, “Indole derivatives or benzimidazole derivatives for modulating IκB kinase” (Sanofi-Aventis Deutschland GmbH, priority 2002, dated 2007).
